# Patent US10738056B2 (Aduro BioTech, Inc., priority 2017, dated 2020)
# Biological target: Human cGAS amino acids 155-522 (Homo sapiens (Human), UniProt Q8N884)
# Assay: cGAS biochemical activity assay (ATP remaining, Kinase-Glo Max luminescence)
# Settings: human cGAS 155-522, ATP remaining (Kinase-Glo Max); read-out: cGAS IC50
# Sequence of Human cGAS amino acids 155-522 (Q8N884 157-522): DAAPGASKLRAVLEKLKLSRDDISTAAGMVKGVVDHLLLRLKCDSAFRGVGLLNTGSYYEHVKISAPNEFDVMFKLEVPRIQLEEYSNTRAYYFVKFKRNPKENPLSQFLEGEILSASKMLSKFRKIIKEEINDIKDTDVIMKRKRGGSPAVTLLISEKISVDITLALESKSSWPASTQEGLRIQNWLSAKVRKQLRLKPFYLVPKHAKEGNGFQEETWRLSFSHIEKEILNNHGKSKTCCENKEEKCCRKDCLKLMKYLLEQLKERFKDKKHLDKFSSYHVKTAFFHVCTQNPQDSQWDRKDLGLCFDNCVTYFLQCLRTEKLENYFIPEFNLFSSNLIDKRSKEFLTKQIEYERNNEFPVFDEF
row,IC50,Structure (SMILES)
1,20 to 250 µM,"COc1cccc2c1nc(-c1c(C)[nH]c3c(-c4ccccc4)c(C(F)(F)F)nn3c1=O)n2CC(=O)O [Compound C1221, 2-(4-methoxy-2-(5-methyl-7-oxo-3-phenyl-2-(trifluoromethyl)-4,7-dihydropyrazolo[1,5-a]pyrimidin-6-yl)-1H-benzo[d]imidazol-1-yl)acetic acid]"
2,< 20 µM,"COc1cccc2oc(-c3c(COC4CCN(C)C4=O)[nH]c4c(-c5ccccc5)c(C(F)(F)F)nn4c3=O)nc12 (centres unmarked) [Compound C1225, 6-(4-methoxybenzo[d]oxazol-2-yl)-5-(((1-methyl-2-oxopyrrolidin-3-yl)oxy)methyl)-3-phenyl-2-(trifluoromethyl)pyrazolo[1,5-a]pyrimidin-7(4H)-one]"
3,20 to 250 µM,"COc1cccc2oc(-c3c(C)[nH]c4c(-c5ccccc5)c(C#CC5CC5)nn4c3=O)nc12 [Compound C1228, 2-(cyclopropylethynyl)-6-(4-methoxybenzo[d]oxazol-2-yl)-5-methyl-3-phenylpyrazolo[1,5-a]pyrimidin-7(4H)-one]"
4,20 to 250 µM,"Cc1[nH]c2c(-c3ccccc3)c(C(F)(F)F)nn2c(=O)c1-c1nc2ccccc2n1CC1CCCC1 [Compound C1235, 6-(1-(cyclopentylmethyl)-1H-benzo[d]imidazol-2-yl)-5-methyl-3-phenyl-2-(trifluoromethyl)pyrazolo[1,5-a]pyrimidin-7(4H)-one]"
5,< 20 µM,"COc1cccc2oc(-c3c(C4CCC(C(=O)O)C4)[nH]c4c(-c5ccccc5)c(C(F)(F)F)nn4c3=O)nc12 (centres unmarked) [Compound C1239, 3-(6-(4-methoxybenzo[d]oxazol-2-yl)-7-oxo-3-phenyl-2-(trifluoromethyl)-4,7-dihydropyrazolo[1,5-a]pyrimidin-5-yl)cyclopentane-1-carboxylic acid]"
6,> 250 µM,"COc1cccc2oc(-c3c(C)[nH]c4c(-c5ccccc5)c(C5CC5)nn4c3=O)nc12 [Compound C1242, 2-cyclopropyl-6-(4-methoxybenzo[d]oxazol-2-yl)-5-methyl-3-phenylpyrazolo[1,5-a]pyrimidin-7(4H)-one]"
7,< 20 µM,"Cc1[nH]c2c(-c3ccccc3)c(C(F)(F)F)nn2c(=O)c1-c1n[nH]c(=O)o1 [Compound C1247, 5-(5-methyl-7-oxo-3-phenyl-2-(trifluoromethyl)-4,7-dihydropyrazolo[1,5-a]pyrimidin-6-yl)-1,3,4-oxadiazol-2(3H)-one]"
8,> 250 µM,"Cc1[nH]c2c(C3CC3)c(C(F)(F)F)nn2c(=O)c1Cc1ccccc1 [Compound C1264, 6-benzyl-3-cyclopropyl-5-methyl-2-(trifluoromethyl)pyrazolo[1,5-a]pyrimidin-7(4H)-one]"
9,> 250 µM,"Cc1[nH]c2c(C3CC3)c(C(F)(F)F)nn2c(=O)c1-c1ccccc1 [Compound C1265, 3-cyclopropyl-5-methyl-6-phenyl-2-(trifluoromethyl)pyrazolo[1,5-a]pyrimidin-7(4H)-one]"
10,> 250 µM,"Cc1[nH]c2c(C3CCCC3)c(C(F)(F)F)nn2c(=O)c1-c1ccccc1 [Compound C1266, 3-cyclopentyl-5-methyl-6-phenyl-2-(trifluoromethyl)pyrazolo[1,5-a]pyrimidin-7(4H)-one]"
11,> 250 µM,"Cc1[nH]c2c(C3CCCC3)c(C(F)(F)F)nn2c(=O)c1Cc1ccccc1 [Compound C1267, 6-benzyl-3-cyclopentyl-5-methyl-2-(trifluoromethyl)pyrazolo[1,5-a]pyrimidin-7(4H)-one]"
12,> 250 µM,"Cc1[nH]c2c(C(C)C)c(C(F)(F)F)nn2c(=O)c1Cc1ccccc1 [Compound C1268, 6-benzyl-3-isopropyl-5-methyl-2-(trifluoromethyl)pyrazolo[1,5-a]pyrimidin-7(4H)-one]"
13,< 20 µM,"Cc1[nH]c2c(-c3ccccc3)c(C#N)nn2c(=O)c1-c1ncco1 [Compound C1270, 5-methyl-6-(oxazol-2-yl)-7-oxo-3-phenyl-4,7-dihydropyrazolo[1,5-a]pyrimidine-2-carbonitrile]"
14,< 20 µM,"Cc1[nH]c2c(-c3ccccc3)c(C#N)nn2c(=O)c1-c1nc2ccccc2n1C1CCCCC1 [Compound C1276, 6-(1-cyclohexyl-1H-benzo[d]imidazol-2-yl)-5-methyl-7-oxo-3-phenyl-4,7-dihydropyrazolo[1,5-a]pyrimidine-2-carbonitrile]"
15,< 20 µM,"Cc1[nH]c2c(-c3ccccc3)c(C#N)nn2c(=O)c1-c1nc2c(OC3CC3)cccc2o1 [Compound C1277, 6-(4-cyclopropoxybenzo[d]oxazol-2-yl)-5-methyl-7-oxo-3-phenyl-4,7-dihydropyrazolo[1,5-a]pyrimidine-2-carbonitrile]"
16,< 20 µM,"COc1cccc2oc(-c3c(P(C)(C)=O)[nH]c4c(-c5ccccc5)c(C(F)(F)F)nn4c3=O)nc12 [Compound C1284, 5-(dimethylphosphoryl)-6-(4-methoxybenzo[d]oxazol-2-yl)-3-phenyl-2-(trifluoromethyl)pyrazolo[1,5-a]pyrimidin-7(4)-one]"

row,IC50,Structure (SMILES)
1,20 to 250 µM,"Cc1nnc(-c2c(C)[nH]c3c(-c4ccccc4)c(C(F)(F)F)nn3c2=O)o1 [Compound D1001, 5-methyl-6-(5-methyl-1,3,4-oxadiazol-2-yl)-3-phenyl-2-(trifluoromethyl)pyrazolo[1,5-a]pyrimidin-7(4H)-one]"
2,> 250 µM,"COc1ccc(-c2nnc(-c3c(C)[nH]c4c(-c5ccccc5)c(C(F)(F)F)nn4c3=O)o2)cc1 [Compound D1002, 6-(5-(4-methoxyphenyl)-1,3,4-oxadiazol-2-yl)-5-methyl-3-phenyl-2-(trifluoromethyl)pyrazolo[1,5-a]pyrimidin-7(4H)-one]"
3,< 20 µM,"Cc1[nH]c2c(-c3ccccc3)c(C(F)(F)F)nn2c(=O)c1-c1nnc(C2CCCC2)o1 [Compound D1003, 6-(5-cyclopentyl-1,3,4-oxadiazol-2-yl)-5-methyl-3-phenyl-2-(trifluoromethyl)pyrazolo[1,5-a]pyrimidin-7(4H)-one]"
4,20 to 250 µM,"Cc1[nH]c2c(-c3ccccc3)c(C(F)(F)F)nn2c(=O)c1-c1nnc(C(C)C)o1 [Compound D1005, 6-(5-isopropyl-1,3,4-oxadiazol-2-yl)-5-methyl-3-phenyl-2-(trifluoromethyl)pyrazolo[1,5-a]pyrimidin-7(4H)-one]"
5,< 20 µM,"Cc1[nH]c2c(-c3ccccc3)c(C(F)(F)F)nn2c(=O)c1-c1nnc(C2CCCCC2)s1 [Compound D1006, 6-(5-cyclohexyl-1,3,4-thiadiazol-2-yl)-5-methyl-3-phenyl-2-(trifluoromethyl)pyrazolo[1,5-a]pyrimidin-7(4H)-one]"
6,20 to 250 µM,"Cc1[nH]c2c(-c3ccccc3)c(C(F)(F)F)nn2c(=O)c1-c1nnc(N2CCOCC2)o1 [Compound D1009, 5-methyl-6-(5-morpholino-1,3,4-oxadiazol-2-yl)-3-phenyl-2-(trifluoromethyl)pyrazolo[1,5-a]pyrimidin-7(4H)-one]"
7,> 250 µM,"Cc1[nH]c2c(-c3ccccc3)c(C(F)(F)F)nn2c(=O)c1-c1nnc(-c2ccccc2)o1 [Compound D1011, 5-methyl-3-phenyl-6-(5-phenyl-1,3,4-oxadiazol-2-yl)-2-(trifluoromethyl)pyrazolo[1,5-a]pyrimidin-7(4H)-one]"
8,20 to 250 µM,"Cc1[nH]c2c(-c3ccccc3)c(C(F)(F)F)nn2c(=O)c1-c1nnc(C2CCOC2)o1 (centres unmarked) [Compound D1013, 5-methyl-3-phenyl-6-(5-(tetrahydrofuran-3-yl)-1,3,4-oxadiazol-2-yl)-2-(trifluoromethyl)pyrazolo[1,5-a]pyrimidin-7(4H)-one]"
9,> 250 µM,"Cc1[nH]c2c(C3CCCC3)c(C(F)(F)F)nn2c(=O)c1-c1nnc(C2CCCCC2)o1 [Compound D1017, 6-(5-cyclohexyl-1,3,4-oxadiazol-2-yl)-3-cyclopentyl-5-methyl-2-(trifluoromethyl)pyrazolo[1,5-a]pyrimidin-7(4H)-one]"
10,20 to 250 µM,"Cc1[nH]c2c(-c3ccccc3)c(C(F)(F)F)nn2c(=O)c1-c1nnc(C2CCCN(C(=O)OC(C)(C)C)C2)o1 (centres unmarked) [Compound D1031, tert-butyl 3-(5-(5-methyl-7-oxo-3-phenyl-2-(trifluoromethyl)-4,7-dihydropyrazolo[1,5-a]pyrimidin-6-yl)-1,3,4-oxadiazol-2-yl)piperidine-1-carboxylate]"
11,20 to 250 µM,"Cc1nnc(Cc2c(C)[nH]c3c(-c4ccccc4)c(C(F)(F)F)nn3c2=O)o1 [Compound D1032, 5-methyl-6-((5-methyl-1,3,4-oxadiazol-2-yl)methyl)-3-phenyl-2-(trifluoromethyl)pyrazolo[1,5-a]pyrimidin-7(4H)-one]"
12,20 to 250 µM,"COc1ccc(-c2nnc(Cc3c(C)[nH]c4c(-c5ccccc5)c(C(F)(F)F)nn4c3=O)o2)cc1 [Compound D1033, 6-((5-(4-methoxyphenyl)-1,3,4-oxadiazol-2-yl)methyl)-5-methyl-3-phenyl-2-(trifluoromethyl)pyrazolo[1,5-a]pyrimidin-7(4H)-one]"
13,20 to 250 µM,"Cc1[nH]c2c(-c3ccccc3)c(C(F)(F)F)nn2c(=O)c1Cc1nnc(C2CCCC2)o1 [Compound D1034, 6-((5-cyclopentyl-1,3,4-oxadiazol-2-yl)methyl)-5-methyl-3-phenyl-2-(trifluoromethyl)pyrazolo[1,5-a]pyrimidin-7(4H)-one]"
14,20 to 250 µM,"Cc1[nH]c2c(-c3ccccc3)c(C(F)(F)F)nn2c(=O)c1Cc1nnc(C2CCCCC2)o1 [Compound D1035, 6-((5-cyclohexyl-1,3,4-oxadiazol-2-yl)methyl)-5-methyl-3-phenyl-2-(trifluoromethyl)pyrazolo[1,5-a]pyrimidin-7(4H)-one]"
15,20 to 250 µM,"Cc1[nH]c2c(-c3ccccc3)c(C(F)(F)F)nn2c(=O)c1-c1nnc(C2CCCNC2)o1 (centres unmarked) [Compound D1036, 5-methyl-3-phenyl-6-(5-(piperidin-3-yl)-1,3,4-oxadiazol-2-yl)-2-(trifluoromethyl)pyrazolo[1,5-a]pyrimidin-7(4H)-one]"
16,< 20 µM,"COC1CCN(c2nnc(-c3c(C)[nH]c4c(-c5ccccc5)c(C(F)(F)F)nn4c3=O)o2)C1 (centres unmarked) [Compound D1037, 6-(5-(3-methoxypyrrolidin-1-yl)-1,3,4-oxadiazol-2-yl)-5-methyl-3-phenyl-2-(trifluoromethyl)pyrazolo[1,5-a]pyrimidin-7(4H)-one]"
